Results taken from article PMC7297445, “Pharmacokinetic/Pharmacodynamic Determination and Preclinical Pharmacokinetics of the β-Lactamase Inhibitor ETX1317 and Its Orally Available Prodrug ETX0282” (ACS Infectious Diseases, 2020).
“Also recorded” adds a separate entry of the source.

Key:
E. coli ARC2687 = assay: Murine neutropenic thigh infection model; assay type: in vivo, mouse
Method: (§1) In vivo neutropenic infection models in the mouse were conducted as previously described.[48],[49] All procedures were performed to Entasis approved IACUC policies and guidelines as well as OLAW standards. Briefly, Female CD-1 mice (20–22 g, Charles River Laboratories) were acclimated for 5 days prior to start of study. Animals were housed 3 per cage with free access to food and water. Mice were rendered neutropenic via two doses of cyclophosphamide on days −4 and −1 with 150 mg/kg and 100 mg/kg delivered intraperitoneally in a dose volume of 10 mL/kg, respectively.[48]
(§2) Enterobacteriaceae isolates ARC2687, ARC4488, ARC5118, NMC101, and ARC4419 were prepared for infection from an overnight plate culture. A portion of the plate was resuspended in sterile saline and adjusted to an OD of 0.1 at 625 nm. The adjusted bacterial suspension was further diluted to target an infecting inoculum of approximately 5.0 × 10^6–1.0 × 10^7 CFU/mouse. The actual inoculum size varied between 5.5 × 10^6–1.6 × 10^6 CFU/thigh and administered via intramuscular injection of (100 μL). Plate counts of the inoculum were performed to confirm inoculum concentration and treatment was initiated 2 h after bacterial challenge.
(§3) ETX0282 and CPDP were formulated in 0.5% HPMC/0.1% Tween 80 suspension. meropenem (utilized as a positive control) was solubilized in water for injection. All studies utilized a meropenem dosed at 600 mg/kg q6h subcutaneously as positive control against meropenem sensitive isolates (MIC ≤ 2 μg/mL) and as a negative control against meropenem resistant isolates. For dose arms utilizing a combination of ETX0282 and CPDP, both agents were reconstituted in the same vehicle. All dose concentrations were adjusted to deliver targeted mg/kg doses within a dose volume of 10 mL/kg. Formulation potency was verified by LC/MS/MS.
(§4) ETX0282 and CPDP were administered via q6h dose intervals in order to achieve targeted unbound exposures. At 24 h post initiation of therapy, animals were euthanized, tissue samples aseptically collected and homogenized. Bacterial colony enumeration of tissue homogenate was performed by serial dilution on TSA plates which were incubated overnight at 35 °C prior to colony (CFU) counting.

K. pneumoniae ARC4488 = assay: Murine neutropenic thigh infection model; assay type: in vivo, mouse; conditions: 50 mg/kg p.o./q6h
Method: as §1, §2, §3, §4

K. pneumoniae ARC5118 = assay: Murine neutropenic thigh infection model; assay type: in vivo, mouse; conditions: 50 mg/kg p.o./q6h
Method: as §1, §2, §3, §4

E. coli ARC4419 = assay: Murine neutropenic thigh infection model; assay type: in vivo, mouse
Method: (§5) To further understand whether this in vitro activity translated to in vivo efficacy, an additional neutropenic thigh study was conducted in mice with increasing doses of ETX0282 alone vs E. coli NMC101 (ETX1317 MICBLI = 1 μg/mL) and ARC4419 (ETX1317 MICBLI = 0.25 μg/mL). […] Despite the significant exposure of ETX1317, a 200 mg/kg q6h dose of ETX0282 alone was ineffective for both strains (Table 6).
as §1, §2, §3, §4

E. coli NMC101 = assay: Murine neutropenic thigh infection model; assay type: in vivo, mouse
Method: as §5, §1, §2, §3, §4

[1] = test system: E. coli strain (ATCC 25922); assay: Murine neutropenic thigh model, CPDP dose range study; assay type: in vivo, mouse; conditions: 50 mg/kg oral q6h, administered alone
From the text: All in vivo efficacy studies were supported with PK of ETX1317 and CPD following oral administration of ETX0282 and CPDP. For the purposes of understanding the exposure-PD response relationship, total systemic concentrations of ETX1317 and cefpodoxime were normalized to unbound drug levels after accounting for protein binding with percent unbound estimates of 93% and 66%, respectively, in mouse plasma (Table S2). An in vivo dose range study with CPDP administered alone against a susceptible E. coli strain (ATCC 25922, CPD MIC = 0.5 μg/mL) was completed initially in a murine neutropenic thigh model to confirm its PK/PD target. In this study a 50 mg/kg oral dose of CPDP administered q6h was consistent with achieving 1–log kill over 24 h. […] Oral exposure was generally dose proportional to 50 mg/kg; however, it became less than dose proportional at ≥200 mg/kg.
as §1, with “Mice were rendered neutropenic via two doses of cyclophosphamide on days −4 and −1 with 150 mg/kg and 100 mg/kg delivered intraperitoneally in a dose volume of 10 mL/kg, respectively.[48]” left out

[2] = Mouse oral pharmacokinetics (satellite infected animals); assay type: in vivo; conditions: after oral administration in mice
[3] = set-up: method as in PMID 9950279; conditions: oral; PEPT1 substrate; cited from earlier work
[4] = Human PK prediction (allometric scaling); conditions: based upon non-clinical PK data
From the text: The methodology utilized for prediction of human PK of ETX1317 was consistent with methods used in support of similar chemotypes such as avibactam and ETX2514.[43] Human predictions for volume of distribution (Vd,ss) and clearance (CL) were within 2-fold of observed mean data obtained in Phase 1 studies, with renal clearance as the predominant clearance mechanism.[44],[45] Pharmacokinetic and excretion data from rats, dogs, and monkeys were used collectively for the projection of ETX1317 PK. Liver S9 incubations were also performed across all species (including human) to confirm consistent conversion of ETX0282 to ETX1317 at projected dose levels of ETX0282.[42] Human PK prediction of ETX1317 was completed using single species allometry for volume of distribution from dog PK and dog and monkey single species scaling using liver blood flow to predict non-renal clearance (CLNR).[46] […] While urinary excretion of ETX1317 was lower in dogs relative to monkeys and rats, human renal clearance (CLR) was predicted using dog-human renal correlation,[47] as this method has been highly predictive for compounds that are generally eliminated via renal excretion. The elimination half-life was estimated based upon the combined use of predicted parameters for clearance and volume of distribution, where T1/2 = ln 2*Vd,ss/CLtotal. Allometric scaling predicted human Vd,ss of 0.35 L/kg.
(§6) Based upon the non-clinical PK data, a range of 60–80% bioavailability and a moderate absorption rate of 0.5–1.0 h^–1 have been considered for humans. In consideration of these predicted parameters, mean percent fT > CT of 1 μg/mL (2× MIC of 0.5 μg/mL) estimates for a 500 mg ETX1317 equiv q12h dose of ETX0282 are summarized in Table S3.

[5] = Low-dose oral PK of ETX0282 across rats, dogs and monkeys; assay type: in vivo; conditions: oral 1 to 10 mg/kg
Method: Intravenous and oral pharmacokinetics of ETX1317 and ETX0282 in preclinical species are summarized in Table 7 and Table S1, respectively. Time vs concentration profiles are depicted graphically in Figure S1.
as §6
Intravenous pharmacokinetics of ETX1317 investigated in jugular vein cannulated male Sprague–Dawley rats (Charles River Laboratories, n = 3/route) at a dose of 10 mg/kg formulated in 0.9% saline. Oral pharmacokinetics of ETX0282 was evaluated at a 10 mg/kg equivalent dose of ETX1317 formulated in 25:75 PEG 400:WFI. The pH of each formulation was verified to fall within a range of 4–7 and were confirmed to be in solution prior to dosing. Potency was verified by LC/MS/MS. Dose volumes were 5 and 10 mL/kg for ETX1317(i.v.) and ETX0282(p.o.), respectively for rats. In both dog (male, 3/route) and monkey (male, 3/route) studies, i.v. and p.o. doses were formulated on 25:75 PEG 400:WFI (pH ∼5) and administered at a dose of ∼1 mg/kg. Dose volume was 1 mL/kg for both routes in dogs and monkeys with the i.v. dose infused over 15 min. […]

[6] = set-up: method as in PMID 32658473; conditions: across all species, including humans; cited from earlier work
[7] = ETX0282 alone 200 mg/kg q6h, combination 50:50 mg/kg q6h

| Compound | log10 CFU/g thigh change 24 h post therapy initiation (E. coli ARC2687; 50 mg/kg p.o./q6h) | log10 CFU/g thigh change 24 h post therapy initiation (K. pneumoniae ARC4488) | log10 CFU/g thigh change 24 h post therapy initiation (K. pneumoniae ARC5118) | log10 CFU/g thigh change 24 h post therapy initiation (E. coli ARC4419; 50 mg/kg p.o./q6h) | log10 CFU/g thigh change 24 h post therapy initiation (E. coli NMC101; 50 mg/kg p.o./q6h) | efficacy over 24 h [1] | systemic concentrations of intact prodrug [2] | bioavailability [3] [%] | log10 CFU/g thigh change 24 h post therapy initiation (E. coli ARC2687; 10 mg/kg p.o./q6h (footnote c)) | log10 CFU/g thigh change 24 h post therapy initiation (E. coli ARC4419; 10 mg/kg p.o./q6h) | log10 CFU/g thigh change 24 h post therapy initiation (E. coli ARC4419; 200 mg/kg p.o./q6h) | in vivo efficacy in words (E. coli ARC4419; [7]) | log10 CFU/g thigh change 24 h post therapy initiation (E. coli NMC101; 10 mg/kg p.o./q6h) | log10 CFU/g thigh change 24 h post therapy initiation (E. coli NMC101; 200 mg/kg p.o./q6h) | in vivo efficacy in words (E. coli NMC101; [7]) | absorption rate considered for humans [4] | circulating levels of intact prodrug [5] | conversion of ETX0282 to ETX1317 in liver S9 [6] |
| --- | --- | --- | --- | --- | --- | --- | --- | --- | --- | --- | --- | --- | --- | --- | --- | --- | --- | --- |
| COCC1=C(C(=O)OC(C)OC(=O)OC(C)C)N2C(=O)[C@@H](NC(=O)/C(=N\OC)c3csc(N)n3)[C@H]2SC1 (stereo partly shown) [CPDP, cefpodoxime proxetil] | +3.61 log10 CFU/g | +3.58 log10 CFU/g | +2.66 log10 CFU/g | +2.23 log10 CFU/g | +3.39 log10 CFU/g | 1–log kill | No concentrations of intact CPDP and ETX0282 were observed systemically |  |  |  |  |  |  |  |  |  |  |  |
| CC1(C)S[C@@H]2[C@H](NC(=O)[C@H](N)c3ccc(O)cc3)C(=O)N2[C@H]1C(=O)O [amoxicillin] |  |  |  |  |  |  |  | > 70 |  |  |  |  |  |  |  |  |  |  |
| CC1=C[C@@H](C(N)=O)N2C[C@@H]1N(O[C@H](F)C(=O)OC(C)C)C2=O [ETX0282] |  |  | +1.31 log10 CFU/g | +1.06 log10 CFU/g | +1.83 log10 CFU/g |  | No concentrations of intact CPDP and ETX0282 were observed systemically |  | +2.93 ^c log10 CFU/g | +1.41 log10 CFU/g | +1.07 log10 CFU/g | ineffective | +2.10 log10 CFU/g | +1.39 log10 CFU/g | ineffective | 0.5–1.0 h^–1 | minimal to no levels of ETX0282 | efficient conversion; also recorded: Extensive and quantitative conversion |
